Entries after “also recorded” stand apart in the source; their conditions may differ. No end group written: not given here.
Columns and labels:
[1] = Enzymatic stability in murine plasma; type: in vitro ADME; conditions: 37°C, HPLC separation, MS analysis, percentage from peak areas; for Percentage intact peptide remaining (%) 4 h / remaining at 4 h: 4-h incubation; for remaining at 2 h / remaining at 4 h / remaining at 8 h: mouse; for remaining at 2 h: 2-h incubation, read-out: Percentage intact peptide remaining (%) 2 h; for remaining at 4 h: read-out: Percentage intact peptide remaining (%) 4 h; for remaining at 8 h / Percentage intact peptide remaining (%) 8 h: 8-h incubation; for remaining at 8 h: read-out: Percentage intact peptide remaining (%) 8 h
Method: When incubated together with murine plasma, Ac-NT/XN-8-Gln remained 100% intact up to and including 4 h, and over 90% peptide intact over an extended 8-h incubation period (Table 1).

BRIN-BD11 β-cells = test: β-cell proliferation, Ki-67 immunostaining; type: cell-based; conditions: 18 h, 10^−8 and 10^−6 M, n=3–4, vs media control (Figure 2A)
Method: BRIN-BD11 β-cells were used to investigate effects of test peptides (10^−8 and 10^−6 M) on β-cell proliferation and protection against apoptosis. GLP-1 was employed as a positive control for all studies. Ki-67 immunostaining was used to assess effects on proliferation. Briefly, cells were seeded on to coverslips (40000 cells per coverslip) and cultured overnight (18 h; 37°C), in the presence of test peptides (10^−8 and 10^−6 M). Cells were then washed with PBS, and fixed using 4% paraformaldehyde. Following antigen retrieval with citrate buffer (90°C for 20 min), tissues were blocked using 1.1% BSA for 30 min. Cells were then incubated with Ki-67 primary antibody (1:500; Abcam, ab15580), followed by Alexa Fluor® 488 secondary antibody (1:400, Invitrogen, A-11008). Coverslips were washed with PBS, mounted on slides for viewing using a fluorescent microscope (Olympus System Microscope) and photographed by DP70 camera adapter system. Proliferation frequency was expressed as percentage of total cells analysed. For analysis of the ability of test peptides (10^−8 and 10^−6 M) to protect against apoptosis, cells were seeded as above, but apoptosis evoked through activation of caspase 3 and 7 activity by a luminogenic, tetrapeptide sequence DEVD Caspase-Glo® 3/7 substrate. Caspase induced cleavage of the substrate was then assessed by an ApoLive-Glow™ Multiplex assay kit, according to the protocol provided by the manufacturer (Promega, Wisconsin, U.S.A.).
(A) Proliferation was measured using Ki-67 immunocytochemistry. (B) Caspase-3/7 activation was detected by luminescence.

BRIN-BD11 cells = test: In vitro insulin secretion from BRIN-BD11 cells (radioimmunoassay); type: cell-based; conditions: 20 min; for Effect on glucose-stimulated insulin secretion: 16.7 mM glucose, n=8 (Figure 1B); for Effect on GIP-induced insulin secretion: with 10^−7 M GIP, 5.6 mM glucose, n=8 (Figure 1C); for Effect on GLP-1 evoked insulin release: with 10^−7 M GLP-1, 5.6 mM glucose, n=8 (Figure 1D)
Method: The in vitro insulin secretory activity of test peptides was examined in BRIN-BD11 cells, cultured and maintained as previously described. For experimentation, BRIN-BD11 cells were seeded in 24-well plates at a cell density of 150000 cells/well, and allowed to attach overnight at 37°C. Following pre-incubation with Krebs–Ringer bicarbonate buffer (KRBB) (pH 7.4) supplemented with 0.5% (w/v) BSA and 1.1 mM glucose (40 min; 37°C), cells were then incubated with test peptides alone (10^−6–10^−12 M), or in combination with either GIP or GLP-1 (10^−7 M), at 5.6 or 16.7 mM glucose, as appropriate for 20 min. […] Aliquots of assay buffer (200 μl) were collected and stored at −20°C prior to assessment of insulin concentrations by an in-house radioimmunoassay. To confirm insulin secretory activity of Ac-NT/XN-8-Gln, pancreatic islets were isolated from lean C57BL/6 mice by collagenase digestion, as described previously and insulin secretion determined as outlined above (16.7 mM glucose), but over a 60-min test incubation period.
Figure 1 Acute effects of acetyl-neurotensin(8-13), xenin-8-Gln, Ac-NT/XN-8-Gln alone and in combination with GIP or GLP-1, on insulin release from BRIN-BD11 cells and isolated mouse islets BRIN-BD11 cells were incubated (20 min) with a range of concentrations (10^−12 to 10^−6 M) of acetyl-neurotensin(8-13), xenin-8-Gln or Ac-NT/XN-8-Gln alone (A,B) or in combination with GIP (C) or GLP-1 (D) in the presence of (A,C,D) 5.6 or (B) 16.7 mM glucose. (E) Murine islets were incubated (60 min) with Ac-NT/XN-8-Gln (10^−8 and 10^−6 M) in the presence 16.7 mM glucose. (A–E) Insulin release was measured using radioimmunoassay. Values represent means ± SEM (n=8 for (A–D) and n=5 for (E)). *P<0.05 and ***P<0.001 compared with respective glucose controls. ^∆P<0.05, ^∆∆P<0.01 and ^∆∆∆P<0.001 compared with respective 10^−7 M GIP or GLP-1 control.

isolated mouse islets = test: Insulin secretion from isolated mouse islets; type: cell-based, C57BL/6 mice; conditions: 16.7 mM glucose, 60 min, peptide 10^−8 and 10^−6 M, n=5 (Figure 1E)
Method: The in vitro insulin secretory activity of test peptides was examined in BRIN-BD11 cells, cultured and maintained as previously described. For experimentation, BRIN-BD11 cells were seeded in 24-well plates at a cell density of 150000 cells/well, and allowed to attach overnight at 37°C. Following pre-incubation with Krebs–Ringer bicarbonate buffer (KRBB) (pH 7.4) supplemented with 0.5% (w/v) BSA and 1.1 mM glucose (40 min; 37°C), cells were then incubated with test peptides alone (10^−6–10^−12 M), or in combination with either GIP or GLP-1 (10^−7 M), at 5.6 or 16.7 mM glucose, as appropriate for 20 min. […] To confirm insulin secretory activity of Ac-NT/XN-8-Gln, pancreatic islets were isolated from lean C57BL/6 mice by collagenase digestion, as described previously and insulin secretion determined as outlined above (16.7 mM glucose), but over a 60-min test incubation period.
Figure 1 Acute effects of acetyl-neurotensin(8-13), xenin-8-Gln, Ac-NT/XN-8-Gln alone and in combination with GIP or GLP-1, on insulin release from BRIN-BD11 cells and isolated mouse islets BRIN-BD11 cells were incubated (20 min) with a range of concentrations (10^−12 to 10^−6 M) of acetyl-neurotensin(8-13), xenin-8-Gln or Ac-NT/XN-8-Gln alone (A,B) or in combination with GIP (C) or GLP-1 (D) in the presence of (A,C,D) 5.6 or (B) 16.7 mM glucose. […] (A–E) Insulin release was measured using radioimmunoassay. […]

Row | remaining at 2 h [1] [%] | remaining at 4 h [1] [%] | remaining at 8 h [1] [%] | Percentage intact peptide remaining (%) 8 h [1] | Compound | Percentage intact peptide remaining (%) 4 h [1] | β-cell proliferation (Ki-67) (BRIN-BD11 β-cells) | Effect on glucose-stimulated insulin secretion (BRIN-BD11 cells) | Effect on GIP-induced insulin secretion (BRIN-BD11 cells) | Effect on GLP-1 evoked insulin release (BRIN-BD11 cells) | Insulin release from isolated mouse islets (isolated mouse islets)
1 |  |  |  |  | glucagon-like peptide-1 [Native GLP-1] | fully degraded |  |  |  |  | 
2 | 98.2 | 94.4 | 89.6 |  | CC[C@H](C)[C@H](NC(=O)[C@H](Cc1ccc(O)cc1)NC(=O)[C@@H]1CCCN1C(=O)[C@H](CCCNC(=N)N)NC(=O)[C@H](CCCNC(=N)N)NC(C)=O)C(=O)N[C@@H](CC(C)C)C(=O)O [Acetyl-neurotensin(8-13)] |  | augmented | inhibited | no effect | inhibit | 
3 | 100 | 98.3 |  | 94.1% | HPQQPWIL [Xenin-8-Gln] |  | devoid of benefits | retained significant insulinotropic actions | augmented | no impact | 
4 | 100 |  | 91.7 | over 90% | Ac-RRPYILHPQQPWIL [Ac-NT/XN-8-Gln] | 100% | augmented |  | augmented; also recorded: similar, but more prominent, bioactivity profile | perturb | Prominent (P<0.01) insulinotropic actions

Source: article PMC8390788 (Bioscience Reports, 2021)
